Results on eleven compounds are retold here after US12110295B2, “WD40 repeat domain protein 5 (WDR5) degradation/disruption compounds and methods of use” (Icahn School of Medicine at Mount Sinai, priority 2018, dated 2024).

SMILES strings stand for the structures.

The target of this assay is WDR5 (Homo sapiens, UniProt P61964). The assay is described as follows: Screening of putative WDR5 degraders by Western blot in MV4;11 and/or MIAPACA2 cells. It is filed as cell-based. Further details: After WDR5 degrader treatment, cells were collected and lysed; endogenous in cells; host or cells: MV4;11 and/or MIAPACA2. As to conditions: summary of screening, FIGS. 6-10. Put shortly:
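MV4;11 (1×10^6/well) or MIAPACA2 (1×10^5/well) cells treated 18 h with compound at paired doses between 0.1 and 10 μM, DMSO as control. Total lysates immunoblotted for WDR5 with vinculin, tubulin or GAPDH loading controls; fluorescent secondary detection.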
As to `Cc1ncsc1-c1ccc(CNC(=O)[C@@H]2C[C@@H](O)CN2C(=O)[C@@H](NC(=O)CCCCCCCNC(=O)c2ccc(-c3ccc(N4C[C@@H](C)N(C)[C@@H](C)C4)c(NC(=O)c4c[nH]c(=O)cc4C(F)(F)F)c3)c(F)c2)C(C)(C)C)cc1` [XF056-171, N-(2′-fluoro-4′-((8-(((S)-1-((2S,4R)-4-hydroxy-2-((4-(4-methylthiazol-5-yl)benzyl)carbamoyl)pyrrolidin-1-yl)-3,3-dimethyl-1-oxobutan-2-yl)amino)-8-oxooctyl)carbamoyl)-4-((3R,5S)-3,4,5-trimethylpiperazin-1-yl)-[1,1′-biphenyl]-3-yl)-6-oxo-4-(trifluoromethyl)-1,6-dihydropyridine-3-carboxamide], the “effective degradation of WDR5 in MV4;11 and/or MIAPACA2 cells” value (“effective degradation of WDR5” for short) is “able to effectively degrade WDR5”.

For the compound `Cc1ncsc1-c1ccc(CNC(=O)[C@@H]2C[C@@H](O)CN2C(=O)[C@@H](NC(=O)COCCNC(=O)CCC(=O)N2CCN(c3ccc(-c4cc(NC(=O)c5c[nH]c(=O)cc5C(F)(F)F)c(N5C[C@@H](C)N(C)[C@@H](C)C5)cc4F)cn3)CC2)C(C)(C)C)cc1` [XF067-140, N-(4-fluoro-5-(6-(4-(4-((2-(2-(((S)-1-((2S,4R)-4-hydroxy-2-((4-(4-methylthiazol-5-yl)benzyl)carbamoyl)pyrrolidin-1-yl)-3,3-dimethyl-1-oxobutan-2-yl)amino)-2-oxoethoxy)ethyl)amino)-4-oxobutanoyl)piperazin-1-yl)pyridin-3-yl)-2-((3S,5R)-3,4,5-trimethylpiperazin-1-yl)phenyl)-6-oxo-4-(trifluoromethyl)-1,6-dihydropyridine-3-carboxamide], the “effective degradation of WDR5” value is given as “able to effectively degrade WDR5”.

As for `Cc1ncsc1-c1ccc(CNC(=O)[C@@H]2C[C@@H](O)CN2C(=O)[C@@H](NC(=O)CCCCCC(=O)N2CCN(Cc3cnc(N4CC=C(c5cc(NC(=O)c6c[nH]c(=O)cc6C(F)(F)F)c(N6C[C@@H](C)N(C)[C@@H](C)C6)cc5F)CC4)nc3)CC2)C(C)(C)C)cc1` [XF078-144, N-(4-fluoro-5-(1-(5-((4-(7-(((S)-1-((2S,4R)-4-hydroxy-2-((4-(4-methylthiazol-5-yl)benzyl)carbamoyl)pyrrolidin-1-yl)-3,3-dimethyl-1-oxobutan-2-yl)amino)-7-oxoheptanoyl)piperazin-1-yl)methyl)pyrimidin-2-yl)-1,2,3,6-tetrahydropyridin-4-yl)-2-((3S,5R)-3,4,5-trimethylpiperazin-1-yl)phenyl)-6-oxo-4-(trifluoromethyl)-1,6-dihydropyridine-3-carboxamide], the “effective degradation of WDR5” value is “able to effectively degrade WDR5”.

As for `Cc1ncsc1-c1ccc(CNC(=O)[C@@H]2C[C@@H](O)CN2C(=O)[C@@H](NC(=O)CCCCCCCC(=O)NCCN2CCN(Cc3ccc(F)c(-c4ccc(N5C[C@@H](C)N(C)[C@@H](C)C5)c(NC(=O)c5c[nH]c(=O)cc5C(F)(F)F)c4)c3)CC2)C(C)(C)C)cc1` [XF078-15, N^1-(2-(4-((6-fluoro-3′-(6-oxo-4-(trifluoromethyl)-1,6-dihydropyridine-3-carboxamido)-4′-((3S,5R)-3,4,5-trimethylpiperazin-1-yl)-[1,1′-biphenyl]-3-yl)methyl)piperazin-1-yl)ethyl)-N^9-((S)-1-((2S,4R)-4-hydroxy-2-((4-(4-methylthiazol-5-yl)benzyl)carbamoyl)pyrrolidin-1-yl)-3,3-dimethyl-1-oxobutan-2-yl)nonanediamide], the “effective degradation of WDR5” value was “able to effectively degrade WDR5”.

Take `C[C@@H]1CN(c2cc(F)c(C3=CCN(c4ncc(CN5CCN(C(=O)CNc6cccc7c6C(=O)N(C6CCC(=O)NC6=O)C7=O)CC5)cn4)CC3)cc2NC(=O)c2c[nH]c(=O)cc2C(F)(F)F)C[C@H](C)N1C` (stereo partly drawn) [XF078-149, N-(5-(1-(5-((4-((2-(2,6-dioxopiperidin-3-yl)-1,3-dioxoisoindolin-4-yl)glycyl)piperazin-1-yl)methyl)pyrimidin-2-yl)-1,2,3,6-tetrahydropyridin-4-yl)-4-fluoro-2-((3S,5R)-3,4,5-trimethylpiperazin-1-yl)phenyl)-6-oxo-4-(trifluoromethyl)-1,6-dihydropyridine-3-carboxamide]: the “effective degradation of WDR5” value is “able to effectively degrade WDR5”.

Consider `Cc1ncsc1-c1ccc(CNC(=O)[C@@H]2C[C@@H](O)CN2C(=O)[C@@H](NC(=O)CCOCCOCCOCCOCCNC(=O)CCC(=O)N2CCN(c3ccc(-c4cc(NC(=O)c5c[nH]c(=O)cc5C(F)(F)F)c(N5C[C@@H](C)N(C)[C@@H](C)C5)cc4F)cn3)CC2)C(C)(C)C)cc1` [XF067-146, N-(4-fluoro-5-(6-(4-((S)-3-((2S,4R)-4-hydroxy-2-((4-(4-methylthiazol-5-yl)benzyl)carbamoyl)pyrrolidine-1-carbonyl)-2,2-dimethyl-5,21-dioxo-8,11,14,17-tetraoxa-4,20-diazatetracosan-24-oyl)piperazin-1-yl)pyridin-3-yl)-2-((3S,5R)-3,4,5-trimethylpiperazin-1-yl)phenyl)-6-oxo-4-(trifluoromethyl)-1,6-dihydropyridine-3-carboxamide], for which the “effective degradation of WDR5” value was “able to effectively degrade WDR5”.

Turning to `Cc1ncsc1-c1ccc(CNC(=O)[C@@H]2C[C@@H](O)CN2C(=O)[C@@H](NC(=O)CCOCCC(=O)NCCN2CCN(Cc3ccc(F)c(-c4ccc(N5C[C@@H](C)N(C)[C@@H](C)C5)c(NC(=O)c5c[nH]c(=O)cc5C(F)(F)F)c4)c3)CC2)C(C)(C)C)cc1` [XF078-2, N-(2′-fluoro-5′-((4-(2-(3-(3-(((S)-1-((2S,4R)-4-hydroxy-2-((4-(4-methylthiazol-5-yl)benzyl)carbamoyl)pyrrolidin-1-yl)-3,3-dimethyl-1-oxobutan-2-yl)amino)-3-oxopropoxy)propanamido)ethyl)piperazin-1-yl)methyl)-4-((3S,5R)-3,4,5-trimethylpiperazin-1-yl)-[1,1′-biphenyl]-3-yl)-6-oxo-4-(trifluoromethyl)-1,6-dihydropyridine-3-carboxamide], the “effective degradation of WDR5” value is “able to effectively degrade WDR5”.

For the compound `Cc1ncsc1-c1ccc(CNC(=O)[C@@H]2C[C@@H](O)CN2C(=O)[C@@H](NC(=O)CCCCCCC(=O)N2CCN(Cc3cnc(N4CC=C(c5cc(NC(=O)c6c[nH]c(=O)cc6C(F)(F)F)c(N6C[C@@H](C)N(C)[C@@H](C)C6)cc5F)CC4)nc3)CC2)C(C)(C)C)cc1` [XF078-145, N-(4-fluoro-5-(1-(5-((4-(8-(((S)-1-((2S,4R)-4-hydroxy-2-((4-(4-methylthiazol-5-yl)benzyl)carbamoyl)pyrrolidin-1-yl)-3,3-dimethyl-1-oxobutan-2-yl)amino)-8-oxooctanoyl)piperazin-1-yl)methyl)pyrimidin-2-yl)-1,2,3,6-tetrahydropyridin-4-yl)-2-((3S,5R)-3,4,5-trimethylpiperazin-1-yl)phenyl)-6-oxo-4-(trifluoromethyl)-1,6-dihydropyridine-3-carboxamide], the “effective degradation of WDR5” value is given as “able to effectively degrade WDR5”.

For `Cc1ncsc1-c1ccc(CNC(=O)[C@@H]2C[C@@H](O)CN2C(=O)[C@@H](NC(=O)CCCCCCCC(=O)N2CCN(Cc3cnc(N4CC=C(c5cc(NC(=O)c6c[nH]c(=O)cc6C(F)(F)F)c(N6C[C@@H](C)N(C)[C@@H](C)C6)cc5F)CC4)nc3)CC2)C(C)(C)C)cc1` [XF078-146, N-(4-fluoro-5-(1-(5-((4-(9-(((S)-1-((2S,4R)-4-hydroxy-2-((4-(4-methylthiazol-5-yl)benzyl)carbamoyl)pyrrolidin-1-yl)-3,3-dimethyl-1-oxobutan-2-yl)amino)-9-oxononanoyl)piperazin-1-yl)methyl)pyrimidin-2-yl)-1,2,3,6-tetrahydropyridin-4-yl)-2-((3S,5R)-3,4,5-trimethylpiperazin-1-yl)phenyl)-6-oxo-4-(trifluoromethyl)-1,6-dihydropyridine-3-carboxamide], the “effective degradation of WDR5” value was “able to effectively degrade WDR5”.

For the compound `Cc1ncsc1-c1ccc(CNC(=O)[C@@H]2C[C@@H](O)CN2C(=O)[C@@H](NC(=O)CCCCCCC(=O)N2CC=C(c3cc(NC(=O)c4c[nH]c(=O)cc4C(F)(F)F)c(N4C[C@@H](C)N(C)[C@@H](C)C4)cc3F)CC2)C(C)(C)C)cc1` [XF078-43, N-(4-fluoro-5-(1-(8-(((S)-1-((2S,4R)-4-hydroxy-2-((4-(4-methylthiazol-5-yl)benzyl)carbamoyl)pyrrolidin-1-yl)-3,3-dimethyl-1-oxobutan-2-yl)amino)-8-oxooctanoyl)-1,2,3,6-tetrahydropyridin-4-yl)-2-((3S,5R)-3,4,5-trimethylpiperazin-1-yl)phenyl)-6-oxo-4-(trifluoromethyl)-1,6-dihydropyridine-3-carboxamide], the “effective degradation of WDR5” value is reported as “able to effectively degrade WDR5”.

Turning to `Cc1ncsc1-c1ccc(CNC(=O)[C@@H]2C[C@@H](O)CN2C(=O)[C@@H](NC(=O)CCCCC(=O)N2CCN(c3ncc(-c4cc(NC(=O)c5ccc(F)cc5C(F)(F)F)c(N5C[C@@H](C)N(C)[C@@H](C)C5)cc4F)cn3)CC2)C(C)(C)C)cc1` [XF078-110, (2S,4R)-1-((S)-2-(6-(4-(5-(2-fluoro-5-(4-fluoro-2-(trifluoromethyl)benzamido)-4-((3S,5R)-3,4,5-trimethylpiperazin-1-yl)phenyl)pyrimidin-2-yl)piperazin-1-yl)-6-oxohexanamido)-3,3-dimethylbutanoyl)-4-hydroxy-N-(4-(4-methylthiazol-5-yl)benzyl)pyrrolidine-2-carboxamide], the “effective degradation of WDR5” value is on record as “able to effectively degrade WDR5”.
